The target in this assay is T1, LSD1 (lysine-specific demethylase 1) (Homo sapiens, UniProt O60341).
T1 construct: gene KDM1A; residues 172–852
The assay is described as follows: TR-FRET (LANCE) demethylase assay with biotinylated histone H3K4me1 peptide. Format: biochemical. (TR-FRET usually uses a lanthanide donor and a delayed reading to cut background.)

Each structure is given as a SMILES string.

By IC50 is commonly meant the concentration needed to halve the response being measured. Higher therefore signals weaker potency.

Regarding `CN(C)CC(c1ccc(OC(=O)N(C)CCN(C)C2CC2c2ccccc2)cc1)C1(O)CCCCC1` (stereo not shown) [Nuc01], the IC50 is 530 nM.

Values taken from PMC12384447, “Effect of a Novel Antidepressant and Anticancer Nuc01 on Depression in Cancer Survivors” (Current Issues in Molecular Biology, 2025).
